Marks after values point to notes of the source that are not given here.
Assay: Single ascending dose trial: adverse event and safety monitoring
Assay type: in vivo, human
Conditions: fasted, n = 6
Protocol: A single-ascending dose clinical trial of Compound 1 (potassium salt) was performed.

## N#Cc1nn(-c2cc(Cl)c(Oc3n[nH]c(=O)c4ccccc34)c(Cl)c2)c(=O)[nH]c1=O [Compound 2]
Single 3 mg dose
  AEs by relationship to drug: Not related: 2 (33.3%)
  AEs by relationship to drug: Possibly related: 0
  AEs by relationship to drug: Related: 0
  AEs by relationship to drug: Unlikely related: 0
  Any AE, all CTCAE grades: 2 (33.3%)
  CTCAE Grade 1: 0
  CTCAE Grade 2: 0
  CTCAE Grade 3 or higher: 0
  Serious AEs: 0
Single 10 mg dose
  AEs by relationship to drug: Not related: 0
  AEs by relationship to drug: Possibly related: 0
  AEs by relationship to drug: Related: 0
  AEs by relationship to drug: Unlikely related: 0
  Any AE, all CTCAE grades: 0
  CTCAE Grade 1: 0
  CTCAE Grade 2: 0
  CTCAE Grade 3 or higher: 0
  Serious AEs: 0
Single 30 mg dose
  AEs by relationship to drug: Not related: 1 (16.7%)
  AEs by relationship to drug: Possibly related: 1 (16.7%)*
  AEs by relationship to drug: Related: 0
  AEs by relationship to drug: Unlikely related: 0
  Any AE, all CTCAE grades: 2 (33.3%)
  CTCAE Grade 1: 1 (16.7%)
  CTCAE Grade 2: 1 (16.7%)
  CTCAE Grade 3 or higher: 0
  Serious AEs: 0
Single 60 mg dose
  AEs by relationship to drug: Not related: 0
  AEs by relationship to drug: Possibly related: 0
  AEs by relationship to drug: Related: 0
  AEs by relationship to drug: Unlikely related: 0
  Any AE, all CTCAE grades: 0
  CTCAE Grade 1: 0
  CTCAE Grade 2: 0
  CTCAE Grade 3 or higher: 0
  Serious AEs: 0
